According to patent US11905294B2, “Imidazo[1,5-a]pyrazine derivatives as PI3Kδ inhibitors” (BEIGENE, LTD., priority 2017, dated 2024):

Key:
Type in all cases: biochemical
PI3K (p110δ/p85α) = PI3K (p110δ/p85α) (Homo sapiens, UniProt O00329); experiment: PI3Kδ assay (ADP-Glo Kinase Assay); settings: recombinant enzyme; IC50 (nM) or max inhibition (%) at 0.5 μM
Procedure: Compounds disclosed herein were tested for inhibition of PI3Kδ kinase activity using commercial ADP-Glo™ Kinase Assay (Promega Corporation) and following the manufacture's instruction. Briefly, recombinant PI3K (p110δ/p85α) enzyme, lipid kinase substrate and a serial dilution of compounds disclosed herein were incubated for 0.5 hr at room temperature. ATP was added to initiate the kinase reaction. After incubation for 1 hr at room temperature, ADP-Glo™ reagent was added to terminate the kinase reaction and deplete the remaining ATP. After incubation for 1 hr at room temperature, kinase detection reagent was added to simultaneously convert ADP to ATP and allow the newly synthesized ATP to be measured using a luciferase/luciferin reaction. After incubation for 0.5 hr at room temperature, the luminescence generated was measured on a PHERAstar FS plate reader (BMG LABTECH). The residual enzyme activity in presence of increasing concentrations of compounds was calculated based on the luminescence. The IC50 for each compound was derived from fitting the data to the four-parameter logistic equation by Graphpad Prism software.

PI3K (p110α/p85α) = PI3K (p110α/p85α) (Homo sapiens, UniProt P42336); experiment: PI3Kα assay (ADP-Glo Kinase Assay); settings: recombinant enzyme; IC50 (nM) or max inhibition (%) at 0.5 μM
PI3K (p110β/p85α) = PI3K (p110β/p85α) (Homo sapiens, UniProt P42338); experiment: PI3Kβ assay (ADP-Glo Kinase Assay); settings: read-out: Enzyme activity IC50 PI3Kβ
PI3K (p110γ) = PI3K (p110γ) (Homo sapiens, UniProt P48736); experiment: PI3Kγ assay (ADP-Glo Kinase Assay); settings: recombinant enzyme; IC50 (nM) or max inhibition (%) at 0.5 μM
Sequence of PI3K (p110γ) (P48736 whole entry): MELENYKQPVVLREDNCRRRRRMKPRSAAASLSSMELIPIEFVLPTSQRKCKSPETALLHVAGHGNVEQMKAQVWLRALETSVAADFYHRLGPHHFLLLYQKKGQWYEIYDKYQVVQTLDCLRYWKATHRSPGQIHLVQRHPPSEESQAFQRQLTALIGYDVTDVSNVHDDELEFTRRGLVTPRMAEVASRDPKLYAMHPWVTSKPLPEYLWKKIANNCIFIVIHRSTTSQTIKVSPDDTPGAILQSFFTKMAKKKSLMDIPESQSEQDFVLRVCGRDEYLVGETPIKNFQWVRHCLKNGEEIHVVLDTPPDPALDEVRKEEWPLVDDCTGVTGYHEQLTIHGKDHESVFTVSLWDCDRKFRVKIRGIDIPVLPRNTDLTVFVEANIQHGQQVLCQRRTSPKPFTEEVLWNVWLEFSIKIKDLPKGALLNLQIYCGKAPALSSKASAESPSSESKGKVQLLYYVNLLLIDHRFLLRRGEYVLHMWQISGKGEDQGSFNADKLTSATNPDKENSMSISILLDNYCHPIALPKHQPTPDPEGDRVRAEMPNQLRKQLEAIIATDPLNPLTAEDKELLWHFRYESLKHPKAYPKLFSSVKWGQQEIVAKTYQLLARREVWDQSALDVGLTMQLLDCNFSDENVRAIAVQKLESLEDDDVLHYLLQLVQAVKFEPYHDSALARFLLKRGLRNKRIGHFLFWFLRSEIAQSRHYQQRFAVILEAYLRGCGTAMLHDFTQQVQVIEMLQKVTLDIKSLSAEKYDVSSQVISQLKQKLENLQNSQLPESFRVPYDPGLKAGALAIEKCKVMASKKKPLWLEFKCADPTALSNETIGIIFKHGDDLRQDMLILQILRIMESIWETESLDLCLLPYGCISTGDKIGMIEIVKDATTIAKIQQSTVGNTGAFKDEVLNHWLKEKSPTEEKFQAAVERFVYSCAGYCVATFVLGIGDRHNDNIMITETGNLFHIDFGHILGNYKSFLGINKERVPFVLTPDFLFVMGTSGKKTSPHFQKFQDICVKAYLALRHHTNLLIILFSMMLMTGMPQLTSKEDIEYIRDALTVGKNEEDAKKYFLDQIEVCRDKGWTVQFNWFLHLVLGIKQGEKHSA

Sequence of PI3K (p110β/p85α) (P42338 whole entry): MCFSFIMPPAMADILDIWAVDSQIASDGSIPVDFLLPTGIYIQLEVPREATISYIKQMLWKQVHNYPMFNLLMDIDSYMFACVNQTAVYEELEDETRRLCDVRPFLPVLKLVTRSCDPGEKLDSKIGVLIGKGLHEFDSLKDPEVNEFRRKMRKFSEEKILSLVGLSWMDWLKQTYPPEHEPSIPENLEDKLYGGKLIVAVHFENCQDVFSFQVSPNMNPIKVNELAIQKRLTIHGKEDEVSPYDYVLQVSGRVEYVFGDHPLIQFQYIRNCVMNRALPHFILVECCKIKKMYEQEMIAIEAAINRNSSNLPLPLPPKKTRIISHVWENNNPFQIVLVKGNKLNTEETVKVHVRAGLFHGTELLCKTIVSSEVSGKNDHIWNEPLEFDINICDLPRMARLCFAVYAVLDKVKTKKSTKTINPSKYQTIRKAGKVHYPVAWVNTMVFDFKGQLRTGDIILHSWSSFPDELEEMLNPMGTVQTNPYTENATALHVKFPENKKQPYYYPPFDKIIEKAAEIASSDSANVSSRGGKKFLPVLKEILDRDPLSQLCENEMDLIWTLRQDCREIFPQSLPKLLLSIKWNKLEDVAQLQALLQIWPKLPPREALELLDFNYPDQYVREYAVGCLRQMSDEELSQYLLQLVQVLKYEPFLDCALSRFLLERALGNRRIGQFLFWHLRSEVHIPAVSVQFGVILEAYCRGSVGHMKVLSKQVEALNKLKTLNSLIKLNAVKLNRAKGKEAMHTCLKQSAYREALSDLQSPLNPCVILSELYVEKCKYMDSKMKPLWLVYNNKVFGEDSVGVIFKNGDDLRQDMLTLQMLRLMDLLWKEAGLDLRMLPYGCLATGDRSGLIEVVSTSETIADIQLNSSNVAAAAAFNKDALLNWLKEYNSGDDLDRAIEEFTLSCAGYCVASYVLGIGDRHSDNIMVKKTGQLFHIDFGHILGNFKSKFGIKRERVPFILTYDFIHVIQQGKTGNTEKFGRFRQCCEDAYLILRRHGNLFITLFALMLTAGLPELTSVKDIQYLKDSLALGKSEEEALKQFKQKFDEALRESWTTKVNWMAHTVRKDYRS
Sequence of PI3K (p110β/p85α) (P27986 whole entry partner): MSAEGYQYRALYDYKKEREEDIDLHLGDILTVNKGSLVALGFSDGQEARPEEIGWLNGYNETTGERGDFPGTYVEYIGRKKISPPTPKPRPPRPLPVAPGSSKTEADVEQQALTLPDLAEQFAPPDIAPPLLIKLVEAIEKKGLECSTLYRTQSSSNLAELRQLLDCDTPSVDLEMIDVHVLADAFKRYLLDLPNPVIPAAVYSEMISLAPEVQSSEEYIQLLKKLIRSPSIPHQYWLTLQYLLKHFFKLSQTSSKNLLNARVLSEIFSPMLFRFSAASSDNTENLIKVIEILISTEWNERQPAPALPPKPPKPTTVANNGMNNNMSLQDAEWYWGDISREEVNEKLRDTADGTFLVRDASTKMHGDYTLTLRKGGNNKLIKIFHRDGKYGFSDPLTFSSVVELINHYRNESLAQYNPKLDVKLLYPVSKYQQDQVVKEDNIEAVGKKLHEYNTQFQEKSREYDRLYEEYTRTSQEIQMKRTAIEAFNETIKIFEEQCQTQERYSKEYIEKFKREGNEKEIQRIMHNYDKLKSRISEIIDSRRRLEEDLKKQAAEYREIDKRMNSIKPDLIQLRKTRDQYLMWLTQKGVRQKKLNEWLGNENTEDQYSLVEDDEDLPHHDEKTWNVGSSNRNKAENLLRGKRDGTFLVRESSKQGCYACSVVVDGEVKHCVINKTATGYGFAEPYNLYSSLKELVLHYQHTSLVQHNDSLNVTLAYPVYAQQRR
Sequence of PI3K (p110α/p85α) (P42336 whole entry): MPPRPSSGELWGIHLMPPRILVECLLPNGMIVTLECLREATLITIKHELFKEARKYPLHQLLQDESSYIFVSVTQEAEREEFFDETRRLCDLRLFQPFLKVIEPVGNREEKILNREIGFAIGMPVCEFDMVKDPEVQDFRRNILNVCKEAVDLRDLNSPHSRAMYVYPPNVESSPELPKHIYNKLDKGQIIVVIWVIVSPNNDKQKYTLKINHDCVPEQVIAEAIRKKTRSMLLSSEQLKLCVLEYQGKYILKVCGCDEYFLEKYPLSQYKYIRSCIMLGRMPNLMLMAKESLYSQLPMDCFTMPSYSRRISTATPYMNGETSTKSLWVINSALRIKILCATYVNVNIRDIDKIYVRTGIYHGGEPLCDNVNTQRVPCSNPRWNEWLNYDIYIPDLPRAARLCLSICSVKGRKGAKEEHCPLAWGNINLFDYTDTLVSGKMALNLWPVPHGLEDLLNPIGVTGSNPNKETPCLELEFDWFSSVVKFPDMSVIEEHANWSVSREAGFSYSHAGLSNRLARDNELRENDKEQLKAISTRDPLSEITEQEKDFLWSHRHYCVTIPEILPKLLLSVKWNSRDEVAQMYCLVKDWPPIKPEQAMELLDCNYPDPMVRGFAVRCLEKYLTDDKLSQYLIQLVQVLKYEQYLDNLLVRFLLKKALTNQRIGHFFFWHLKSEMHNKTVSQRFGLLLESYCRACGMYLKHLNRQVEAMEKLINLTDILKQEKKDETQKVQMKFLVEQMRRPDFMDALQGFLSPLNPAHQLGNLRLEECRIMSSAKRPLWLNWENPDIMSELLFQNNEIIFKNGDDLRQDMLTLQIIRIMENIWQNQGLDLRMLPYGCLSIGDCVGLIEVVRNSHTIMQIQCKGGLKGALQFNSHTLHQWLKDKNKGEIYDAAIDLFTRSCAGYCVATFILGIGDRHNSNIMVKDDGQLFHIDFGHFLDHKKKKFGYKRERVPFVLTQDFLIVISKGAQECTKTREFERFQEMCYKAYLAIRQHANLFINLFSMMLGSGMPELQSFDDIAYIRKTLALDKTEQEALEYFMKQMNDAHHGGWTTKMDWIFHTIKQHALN
Sequence of PI3K (p110α/p85α) (P27986 whole entry partner): as the sequence (P27986 whole entry partner) above
Sequence of PI3K (p110δ/p85α) (O00329 whole entry): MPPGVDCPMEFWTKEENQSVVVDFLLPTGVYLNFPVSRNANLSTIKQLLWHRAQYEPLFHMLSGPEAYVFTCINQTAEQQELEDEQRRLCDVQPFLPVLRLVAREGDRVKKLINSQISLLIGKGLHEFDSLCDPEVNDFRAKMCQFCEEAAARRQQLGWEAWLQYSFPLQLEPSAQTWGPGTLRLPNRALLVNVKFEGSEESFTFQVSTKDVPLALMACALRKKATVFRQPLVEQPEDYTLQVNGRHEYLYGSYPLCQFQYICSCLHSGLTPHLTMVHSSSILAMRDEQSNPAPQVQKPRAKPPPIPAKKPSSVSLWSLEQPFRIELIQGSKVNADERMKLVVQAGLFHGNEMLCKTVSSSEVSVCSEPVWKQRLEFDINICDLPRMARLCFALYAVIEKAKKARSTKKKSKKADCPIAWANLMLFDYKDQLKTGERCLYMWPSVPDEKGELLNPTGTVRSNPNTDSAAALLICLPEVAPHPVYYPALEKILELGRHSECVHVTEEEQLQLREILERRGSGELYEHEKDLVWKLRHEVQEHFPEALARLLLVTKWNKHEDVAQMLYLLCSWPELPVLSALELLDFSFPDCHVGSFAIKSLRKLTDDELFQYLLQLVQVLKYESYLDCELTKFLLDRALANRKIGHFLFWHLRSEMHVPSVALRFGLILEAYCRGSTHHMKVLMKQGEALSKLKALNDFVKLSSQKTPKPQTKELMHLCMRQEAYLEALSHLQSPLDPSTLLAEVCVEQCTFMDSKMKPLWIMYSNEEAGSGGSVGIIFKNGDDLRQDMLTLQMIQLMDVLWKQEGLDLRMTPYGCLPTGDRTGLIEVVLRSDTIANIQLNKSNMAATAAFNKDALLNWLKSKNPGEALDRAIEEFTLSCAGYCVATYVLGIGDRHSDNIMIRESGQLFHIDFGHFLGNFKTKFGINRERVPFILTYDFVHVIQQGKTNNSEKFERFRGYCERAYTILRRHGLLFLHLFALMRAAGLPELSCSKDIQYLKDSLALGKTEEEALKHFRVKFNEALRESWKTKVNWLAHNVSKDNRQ
Sequence of PI3K (p110δ/p85α) (P27986 whole entry partner): as the sequence (P27986 whole entry partner) above

Row | Structure (SMILES) | IC50 (PI3K (p110δ/p85α)) | IC50 (PI3K (p110α/p85α)) | IC50 (PI3K (p110β/p85α)) | IC50 (PI3K (p110γ))
1 | Cc1nc(C(C)c2cc(Cl)c(F)c(C(=O)N3CCOCC3)c2OC(C)C)n2ccnc(N)c12 (single isomer, unassigned) [Compound 4A] | 1 nM | 13000 nM | 11 µM | 2000 nM
2 | Cc1nc(C(C)c2cc(Cl)c(F)c(C(=O)N3CCOCC3)c2OC(C)C)n2ccnc(N)c12 (single isomer, unassigned) [Compound 4B] | > 1000 nM | – | – | –
3 | Cc1nc(C(C)c2cc(Cl)c(F)c(C(=O)N3CCC(F)(F)CC3)c2OC(C)C)n2ccnc(N)c12 (single isomer, unassigned) [Compound 13A] | 3 nM | 20000 nM | > 50 µM | 9300 nM
4 | Cc1nc(C(C)c2cc(Cl)c(F)c(C(=O)N3CCC(F)(F)CC3)c2OC(C)C)n2ccnc(N)c12 (single isomer, unassigned) [Compound 13B] | > 1000 nM | – | – | –
5 | Cc1nc(C(C)c2cc(Cl)c(F)c(C(=O)N[C@H]3CC[C@@H](O)C3)c2OC(C)C)n2ccnc(N)c12 (single isomer, unassigned) [Compound 14A] | 1.4 nM | 18000 nM | 13 µM | 7900 nM
6 | Cc1nc(C(C)c2cc(Cl)c(F)c(C(=O)N[C@H]3CC[C@@H](O)C3)c2OC(C)C)n2ccnc(N)c12 (single isomer, unassigned) [Compound 14B] | 320 nM | – | – | –
7 | Cc1nc(C(C)c2cc(Cl)c(F)c(C(=O)N3CC(C(=O)O)C3)c2OC(C)C)n2ccnc(N)c12 (stereo not drawn) [Compound 1, 1-(3-(1-(8-amino-1-methylimidazo[1,5-a]pyrazin-3-yl)ethyl)-5-chloro-6-fluoro-2-isopropoxybenzoyl)azetidine-3-carboxylic acid] | 9.7 nM | > 50000 nM | > 50 µM | 9800 nM
8 | Cc1nc(C(C)c2cc(Cl)c(F)c(C(=O)NC3(C(=O)O)CC3)c2OC(C)C)n2ccnc(N)c12 (stereo not drawn) [Compound 2, 1-(3(1-(8-amino-1-methylimidazo[1,5-a]pyrazin-3-yl)ethyl)-5-chloro-6-fluoro-2-isopropoxybenzamido)cyclopropane-1-carboxylic acid] | 14 nM | > 50000 nM | > 50 µM | 5500 nM
9 | Cc1nc(C(C)c2cc(Cl)c(F)c(C(=O)N3CC(O)C3)c2OC(C)C)n2ccnc(N)c12 (stereo not drawn) [Compound 3, (3-(1-(8-amino-1-methylimidazo[1,5-a]pyrazin-3-yl)ethyl)-5-chloro-6-fluoro-2-isopropoxyphenyl)(3-hydroxyazetidin-1-yl)methanone] | 6.3 nM | 49000 nM | 34 µM | 19000 nM
10 | Cc1nc(C(C)c2cc(Cl)c(F)c(C(=O)N3CCOCC3)c2OC(C)C)n2ccnc(N)c12 (stereo not drawn) [Compound 4, (3-(1-(8-amino-1-methylimidazo[1,5-a]pyrazin-3-yl)ethyl)-5-chloro-6-fluoro-2-isopropoxyphenyl)(morpholino)methanone] | 1.9 nM | 25000 nM | 24 µM | 3100 nM
11 | Cc1nc(C(C)c2cc(Cl)c(F)c(C(=O)NC3(CO)CC3)c2OC(C)C)n2ccnc(N)c12 (stereo not drawn) [Compound 5, 3-(1-(8-amino-1-methylimidazo[1,5-a]pyrazin-3-yl)ethyl)-5-chloro-6-fluoro-N-(1-(hydroxymethyl)cyclopropyl)-2-isopropoxybenzamide] | – | 56000 nM | 16 µM | 10000 nM
12 | Cc1nc([C@@H](C)c2cc(Cl)c(F)c(C(=O)NC3(CO)CC3)c2OC(C)C)n2ccnc(N)c12 [Compound 5A] | – | 21000 nM | 20 µM | 6300 nM
13 | Cc1nc(C(C)c2cc(Cl)c(F)c(C(=O)N3CC[C@H](O)C3)c2OC(C)C)n2ccnc(N)c12 (stereo partly drawn) [Compound 6, (3-(1-(8-amino-1-methylimidazo[1,5-a]pyrazin-3-yl)ethyl)-5-chloro-6-fluoro-2-isopropoxyphenyl)((S)-3-hydroxypyrrolidin-1-yl)methanone] | 2.9 nM | > 50000 nM | > 50 µM | 17000 nM
14 | Cc1nc(C(C)c2cc(Cl)c(F)c(C(=O)N3CCC(O)CC3)c2OC(C)C)n2ccnc(N)c12 (stereo not drawn) [Compound 7, (3-(1-(8-amino-1-methylimidazo[1,5-a]pyrazin-3-yl)ethyl)-5-chloro-6-fluoro-2-isopropoxyphenyl)(4-hydroxypiperidin-1-yl)methanone] | 6 nM | > 50000 nM | > 50 µM | 17000 nM
15 | COCCNC(=O)c1c(F)c(Cl)cc(C(C)c2nc(C)c3c(N)nccn23)c1OC(C)C (stereo not drawn) [Compound 8, 3-(1-(8-amino-1-methylimidazo[1,5-a]pyrazin-3-yl)ethyl)-5-chloro-6-fluoro-2-isopropoxy-N-(2-methoxyethyl)benzamide] | 2.3 nM | 49000 nM | 16 µM | 6800 nM
16 | Cc1nc(C(C)c2cc(Cl)c(F)c(C(=O)NC[C@@H](C)O)c2OC(C)C)n2ccnc(N)c12 (stereo partly drawn) [Compound 9, 3-(1-(8-amino-1-methylimidazo[1,5-a]pyrazin-3-yl)ethyl)-5-chloro-6-fluoro-N-((R)-2-hydroxypropyl)-2-isopropoxybenzamide] | 2.9 nM | 43000 nM | 18 µM | 9200 nM
17 | Cc1nc([C@@H](C)c2cc(Cl)c(F)c(C(=O)N3CCC[C@H](O)C3)c2OC(C)C)n2ccnc(N)c12 [Compound 20, (3-((S)-1-(8-amino-1-methylimidazo[1,5-a]pyrazin-3-yl)ethyl)-5-chloro-6-fluoro-2-isopropoxyphenyl)((S)-3-hydroxypiperidin-1-yl)methanone] | 2.1 nM | – | – | –
18 | Cc1nc([C@@H](C)c2cc(Cl)c(F)c(C(=O)N[C@H](C)c3ccccc3)c2OC(C)C)n2ccnc(N)c12 [Compound 22, 3-((S)-1-(8-amino-1-methylimidazo[1,5-a]pyrazin-3-yl)ethyl)-5-chloro-6-fluoro-2-isopropoxy-N-((R)-1-phenylethyl)benzamide] | 3.7 nM | – | – | –
19 | Cc1nc([C@@H](C)c2cc(Cl)c(F)c(C(=O)N[C@@H]3CCC[C@@H]3O)c2OC(C)C)n2ccnc(N)c12 [Compound 23, 3((S)-1-(8-amino-1-methylimidazo[1,5-a]pyrazin-3-yl)ethyl)-5-chloro-6-fluoro-N-((1R,2S)-2-hydroxycyclopentyl)-2-isopropoxybenzamide] | 9.9 nM | – | – | –
20 | Cc1nc([C@@H](C)c2cc(Cl)c(F)c(C(=O)N(C)C)c2OC(C)C)n2ccnc(N)c12 [Compound 32, (S)-3-(1-(8-amino-1-methylimidazo[1,5-a]pyrazin-3-yl)ethyl)-5-chloro-6-fluoro-2-isopropoxy-N,N-dimethylbenzamide] | 3.2 nM | – | – | –
21 | Cc1nc([C@@H](C)c2cc(Cl)c(F)c(C(=O)N[C@]3(C)CC[C@@H](O)CC3)c2OC(C)C)n2ccnc(N)c12 [Compound 40, 3-((S)-1-(8-amino-1-methylimidazo[1,5-a]pyrazin-3-yl)ethyl)-5-chloro-6-fluoro-N-((1R,4S)-4-hydroxy-1-methylcyclohexyl)-2-isopropoxybenzamide] | 6.5 nM | – | – | –
22 | Cc1nc([C@@H](C)c2cc(Cl)c(F)c(C(=O)N[C@@H]3CCCC[C@@H]3O)c2OC(C)C)n2ccnc(N)c12 [Compound 48, 3-((S)-1-(8-amino-1-methylimidazo[1,5-a]pyrazin-3-yl)ethyl)-5-chloro-6-fluoro-N-((1R,2S)-2-hydroxycyclohexyl)-2-isopropoxybenzamide] | 9.1 nM | – | – | –
23 | Cc1nc([C@@H](C)c2cc(Cl)c(F)c(C(=O)N[C@@H]3CCCC[C@H]3O)c2OC(C)C)n2ccnc(N)c12 [Compound 49, 3-((S)-1-(8-amino-1-methylimidazol[1,5-a]pyrazin-3-yl)ethyl)-5-chloro-6-fluoro-N-((1R,2R)-2-hydroxycyclohexyl)-2-isopropoxybenzamide] | 3.9 nM | – | – | –
24 | Cc1nc([C@@H](C)c2cc(Cl)c(F)c(C(=O)NC3(CN(C)C)CC3)c2OC(C)C)n2ccnc(N)c12 [Compound 54, (S)-3-(1-(8-amino-1-methylimidazo[1,5-a]pyrazin-3-yl)ethyl)-5-chloro-N-(1-((dimethylamino)methyl)cyclopropyl)-6-fluoro-2-isopropoxybenzamide] | 11 nM | – | – | –
25 | CO[C@H]1CCCN(C(=O)c2c(F)c(Cl)cc([C@H](C)c3nc(C)c4c(N)nccn34)c2OC(C)C)C1 [Compound 65, (3-((S)-1-(8-amino-1-methylimidazo[1,5-a]pyrazin-3-yl)ethyl)-5-chloro-6-fluoro-2-isopropoxyphenyl)((S)-3-methoxypiperidin-1-yl)methanone] | 2.9 nM | – | > 50 µM | 6900 nM
26 | Cc1nc([C@@H](C)c2cc(Cl)c(F)c(C(=O)N3C[C@@H](C)O[C@@H](C)C3)c2OC(C)C)n2ccnc(N)c12 [Compound 67, (3-((S)-1-(8-amino-1-methylimidazo[1,5-a]pyrazin-3-yl)ethyl)-5-chloro-6-fluoro-2-isopropoxyphenyl)((2R,6S)-2,6-dimethylmorpholino)methanone] | 8 nM | – | – | –
27 | Cc1nc([C@@H](C)c2cc(Cl)c(F)c(C(=O)N[C@H](C)[C@@H](C)O)c2OC(C)C)n2ccnc(N)c12 [Compound 72, 3-((S)-1-(8-amino-1-methylimidazo[1,5-a]pyrazin-3-yl)ethyl)-5-chloro-6-fluoro-N-((2R,3R)-3-hydroxybutan-2-yl)-2-isopropoxybenzamide] | 6.8 nM | – | – | –
